Read-outs that look alike come from different tables or passages of the source.
Columns and labels:
[1] = Protein binding assay (HT dialysis), human matrices; type: in vitro ADME; conditions: Mean ± SEM
Description: (§1) Unbound fractions of new chemical entities in plasma, brain homogenate and liver microsomes were determined using high-throughput dialysis (HT dialysis). Briefly, dialysis membranes were soaked in deionized water for 20 minutes and then in deionized water with 30% ethanol for 15 minutes and finally in phosphate buffer until use. Membranes were rinsed in phosphate buffer before assembling. The membranes were layered between teflon bars of dialysis assembly. Stock solutions of test compounds were prepared at 10 mM in DMSO, diluted to 1 mM in acetonitrile and further diluted to 100 μM in mixture of water and acetonitrile (1:1 v/v). Human plasma (pool of 3) was prepared from human blood (3 donors) by centrifuging at 4000 rpm for 10 min at 4° C. Rat and dog blood were obtained on the day of the study and centrifuged to obtain plasma. Rat brains were isolated, cleaned and homogenized with 2 volumes of buffer (3 fold dilution). Liver microsomes were prepared at 0.5 mg/mL in phosphate buffer (100 mM, pH 7.4). The dialysate chambers were loaded with 150 μL of 100 mM phosphate buffer (pH 7.4) in triplicates. The matrix chambers were loaded with 150 μL of the plasma or brain homogenate or microsomal suspension spiked with test compounds at a final concentration of 1 μM. 50 μL of the sample was removed from both the chambers at 0 h. The plate was sealed and incubated at 37° C. for 6 h at 100 rpm. After 6 h, 50 μL of the sample was removed from both the chambers. Equal volumes of buffer or human plasma/microsomal suspension were added to the plasma/microsomal and buffer samples respectively to create identical sample matrices for analysis. The samples were precipitated with 150 μL of acetonitrile containing fluoxetine as an internal standard. All the samples were centrifuged at 10000 rpm for 10 minutes at 4° C.

Male Wistar rats = test: Object recognition task model; type: in vivo; conditions: 3 mg/kg, p.o.
Description: Object Recognition Task Model
The cognition enhancing properties of compounds of this invention were estimated by using this model.
Male Wistar rats (8-10 weeks old) were used as experimental animals. Four animals were housed in each cage. Animals were kept on 20% food deprivation from a day prior to experimentation. Water was provided ad libitum throughout the experiment. Animals were maintained on a 12 hours light/dark cycle in temperature and humidity controlled room. The experiment was carried out in an open field made up of acrylic. Rats were habituated to individual arenas (open field) for 1 hour in the absence of any objects on day 1.
One group of 12 rats received vehicle and another set of animals received compound of the formula (I), before the familiar (T1) and choice (T2) trials. During the familiarization phase, (T1), the rats were placed individually in the arena for 3 minutes, in which two identical objects (a1 and a2) were positioned 10 cm from the wall. 24 hours after T1, trial for long-term memory test was performed. The same rats were placed in the same arena as they were placed in T1 trial. During the choice phase (T2) rats were allowed to explore the arena for 3 minutes in presence of a copy of familiar object (a3) and one novel object (b). During the T1 and T2 trial, explorations of each object (defined as sniffing, licking, chewing or having moving vibrissae whilst directing the nose towards the object at a distance of less than 1 cm) were recorded using stopwatch. • T1 is the total time spent exploring the familiar objects (a1+a2). • T2 is the total time spent exploring the familiar object and novel object (a3+b). • Discriminative index=Time spent with novel object/(time spent with novel and familiar object).
The object recognition test was performed as described by Behavioural Brain Research, 1988, 31, 47-59 and the results are provided in table 5.

[2] = biological target: human Muscarinic M1 receptor (Homo sapiens (Human), UniProt P11229); test: Allosteric potency EC50 for muscarinic M1 receptor (CHO cells, pCRE-Luc reporter); type: cell-based; conditions: in presence of EC20 of acetylcholine; luciferase activity, 4 hours; read-out: hM1 PAM EC50
Description: Determination of Allosteric Potency EC50 Values for Muscarinic M1 Receptor:
A stable CHO cell line expressing recombinant human Muscarinic M1 receptor and pCRE-Luc reporter system was used for cell-based assay. The assay offers a non-radioactive based approach to determine binding of a compound to GPCRs. In this specific assay, the level of intracellular cyclic AMP which is modulated by activation or inhibition of the receptor is measured. The recombinant cells harbor luciferase reporter gene under the control of cAMP response element.
The above cells were grown in 96 well clear bottom white plates in Hams F12 medium containing 10% fetal bovine serum (FBS). Prior to the addition of compounds or standard agonist, cells were serum starved overnight. Increasing concentrations of test compounds were added along with EC20 of acetylcholine in OptiMEM medium to the cells. The incubation was continued at 37° C. in CO2 incubator for 4 hours. Medium was removed and cells were washed with phosphate buffered saline. The cells were lysed and luciferase activity was measured in a Luminometer. Luminescence units were plotted against the compound concentrations using Graphpad software. EC50 values of the compounds were defined as the concentration required in stimulating the luciferase activity by 50% in presence of EC20 of acetylcholine and the results are provided in table 1.

[3] = Protein binding assay (HT dialysis), rat matrices; type: in vitro ADME; conditions: Mean ± SEM
Description: as §1

[4] = Protein binding assay (HT dialysis), dog matrices; type: in vitro ADME; conditions: Mean ± SEM
Description: as §1

[5] = Rodent brain penetration study; type: in vivo, Male Wistar rats; conditions: male, Wistar, rat, oral; 3 mg/kg, p.o.; brain-plasma ratio; read-out: Single dose Rat Brain Penetration (Cb/Cp)
Description: WO2015044072A1 patent application discloses indole derivatives as M1 PAM compounds. […] This makes these compounds less ideal for the treatment of CNS disorders.
Rodent Brain Penetration Study
Male Wistar rats (260±40 grams) were used as experimental animals. Three animals were housed in each cage. Animals were given water and food ad libitum throughout the experiment and maintained on a 12 hours light/dark cycle.
Brain penetration was determined in discrete manner in rats. One day prior to dosing day, male Wistar rats were acclimatized and randomly grouped according to their weight. At each time point (0.5, 1 and 2 hours) n=3 animals were used.
The test compounds were suitably preformulated and administered orally at (free base equivalent) 3 mg/kg. Blood samples were removed via cardiac puncture by using isoflurane anesthesia. The animals were sacrificed to collect brain tissue. Plasma was separated and brain samples were homogenized and stored frozen at ˜20° C. until analysis. The concentrations of the test compounds in plasma and brain were determined using LC-MS/MS method.
The test compounds were quantified in plasma and brain homogenate by qualified LC-MS/MS method using suitable extraction technique. The test compounds were quantified in the calibration range of 1-500 ng/mL in plasma and brain homogenate. Study samples were analyzed using calibration samples in the batch and quality control samples spread across the batch.

[6] = cited from earlier work
M1 = M1 (Homo sapiens (Human), UniProt P11229); conditions: cited from earlier work
[7] = cited from earlier work; remark: listed apart in the source
[8] = mean ± S.E.M, choice trial 24 hours after T1

## O=C(N[C@H]1CCCC[C@@H]1O)c1cn(Cc2ccnc(Cl)c2)c2c(F)ccc(F)c12 [Example 6, N-[(1S,2S)-2-Hydroxycyclohexyl]-1-(2-Chloropyridin-4-ylmethyl)-4,7-difluoro-1H-indole-3-carboxamide]
[1]; pH 7.4, Human liver microsomes 0.5 mg/mL, n = 3, read-out: Fu Microsomes
  fraction unbound at 6 h, 1 μM: 0.546 ± 0.018
[1]; pH 7.4, Human plasma, 37° C., n = 3, read-out: Fu Plasma
  fraction unbound at 6 h, 1 μM: 0.03 ± 0.003
Male Wistar rats
  Inference: Active
Male Wistar rats; [8]
  Exploration time Familiar object: 15.75 ± 1.71 s
  Exploration time Novel object: 23.67 ± 2.62 s
[2]
  EC50: 122 nM
[3]; pH 7.4, Rat brain homogenate, 37° C., n = 3, read-out: Fu Brain
  fraction unbound at 6 h, 1 μM: 0.014 ± 0.001
[3]; pH 7.4, Rat liver microsomes 0.5 mg/mL, n = 3, read-out: Fu Microsomes
  fraction unbound at 6 h, 1 μM: 0.56 ± 0.048
[3]; pH 7.4, Rat plasma, 37° C., n = 3, read-out: Fu Plasma
  fraction unbound at 6 h, 1 μM: 0.05 ± 0.008
[4]; pH 7.4, Dog liver microsomes 0.5 mg/mL, n = 3, read-out: Fu Microsomes
  fraction unbound at 6 h, 1 μM: 0.713 ± 0.041
[4]; pH 7.4, Dog plasma, 37° C., n = 3, read-out: Fu Plasma
  fraction unbound at 6 h, 1 μM: 0.043 ± 0.002
[5]
  Kp: 2.09 ± 0.46

## N#CC1(c2ccccn2)CCN(Cc2cc(C(=O)O)c(=O)n3ccccc23)CC1 [PQCA, 1-{[4-cyano-4-(pyridine-2-yl)piperidin-1-yl]methyl}-4-oxo-4H-quinolizine-3-carboxylic acid]
[6]; at doses equal to or less than a fivefold margin from the minimum effective dose required to improve cognition
  gastrointestinal side effects: no gastrointestinal side effects
[6]; several preclinical models of cognition
  efficacy in preclinical models of cognition: efficacious
M1
  selectivity for M1 over the other muscarinic receptor subtypes: highly selective

## CCCCCCOc1nsnc1C1=CCCN(C)C1 [Xanomeline]
[7]; clinical Alzheimer's disease (AD) trial
  effects on cognition: significant effects on cognition
[7]; clinical trials
  gastrointestinal side effects: gastrointestinal side effects led to a high dropout rate

Reference: patent US10294217B2, “Fluoroindole derivatives as muscarinic M1 receptor positive allosteric modulators” (Suven Life Sciences Limited, priority 2015, dated 2019)
